Results as given in US8217029B2, “Oxazolidinone antibiotics” (Actelion Pharmaceuticals Ltd, priority 2007, dated 2012).
≈ marks a conversion by molar mass, not a printed value.

What follows are compounds tested on S aureus A798 (assay: Minimal inhibitory concentration (MIC), microdilution method in cation-adjusted Mueller-Hinton Broth following NCCLS guidelines). Settings: pH of test medium 7.2-7.3.
Format: cell-based
How it was run: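 MICs (mg/l) came from NCCLS-guided microdilution, using cation-adjusted Mueller-Hinton medium adjusted to pH 7.2-7.3.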

| SMILES | MIC [µg/mL] | MIC S aureus A798 |
| --- | --- | --- |
| COc1ccc2ncc(F)c(N3CCN(C[C@@H]4CN(c5ccc6c(c5)NC(=O)CS6)C(=O)O4)CC3)c2n1 [Example 98, 6-{(R)-5-[4-(3-Fluoro-6-methoxy-[1,5]naphthyridin-4-yl)-piperazin-1-ylmethyl]-2-oxo-oxazolidin-3-yl}-4H-benzo[1,4]thiazin-3-one] | ≤ 0.031 | – |
| O=C1O[C@H](CN2CCN(c3ccnc4ccccc34)CC2)CN1c1ccc2c(c1)OCCO2 [Example 99, (R)-3-(2,3-Dihydro-benzo[1,4]dioxin-6-yl)-5-(4-quinolin-4-yl-piperazin-1-ylmethyl)-oxazolidin-2-one] | ≤ 0.031 | – |
| COc1ccc2nccc(N3CCN(C[C@@H]4CN(c5ccc6c(c5)NC(=O)CS6)C(=O)O4)CC3=O)c2n1 [Example 101, 6-{(R)-5-[4-(6-Methoxy-[1,5]naphthyridin-4-yl)-3-oxo-piperazin-1-ylmethyl]-2-oxo-oxazolidin-3-yl}-4H-benzo[1,4]thiazin-3-one] | 0.5 (≈ 0.96 µM) | – |
| COc1ccc2ncc(F)c(N3CCCN(C[C@@H]4CN(c5ccc6c(c5)NC(=O)CO6)C(=O)O4)CC3)c2n1 [Example 103, 6-{(R)-5-[4-(3-Fluoro-6-methoxy-[1,5]naphthyridin-4-yl)-[1,4]diazepan-1-ylmethyl]-2-oxo-oxazolidin-3-yl}-4H-benzo[1,4]oxazin-3-one] | ≤ 0.031 | – |
| COc1ccc2ncc(F)c(N3CCCN(C[C@@H]4CN(c5ccc6c(c5)NC(=O)CS6)C(=O)O4)CC3)c2n1 [Example 104, 6-{(R)-5-[4-(3-Fluoro-6-methoxy-[1,5]naphthyridin-4-yl)-[1,4]diazepan-1-ylmethyl]-2-oxo-oxazolidin-3-yl}-4H-benzo[1,4]thiazin-3-one] | ≤ 0.031 | – |
| COc1ccc2nccc(N3CCCN(C[C@@H]4CN(c5ccc6c(c5)NC(=O)CO6)C(=O)O4)CC3)c2n1 [Example 105, 6-{(R)-5-[4-(6-Methoxy-[1,5]naphthyridin-4-yl)-[1,4]diazepan-1-ylmethyl]-2-oxo-oxazolidin-3-yl}-4H-benzo[1,4]oxazin-3-one] | ≤ 0.031 | – |
| COc1ccc2nccc(N3CCCN(C[C@@H]4CN(c5ccc6c(c5)NC(=O)CS6)C(=O)O4)CC3)c2n1 [Example 106, 6-{(R)-5-[4-(6-Methoxy-[1,5]naphthyridin-4-yl)-[1,4]diazepan-1-ylmethyl]-2-oxo-oxazolidin-3-yl}-4H-benzo[1,4]thiazin-3-one] | ≤ 0.031 | – |
| COc1ccc2nccc(N3CCCN(C[C@@H]4CN(c5ccc6c(c5)OCCO6)C(=O)O4)CC3)c2n1 [Example 107, (R)-3-(2,3-Dihydro-benzo[1,4]dioxin-6-yl)-5-[4-(6-methoxy-[1,5]naphthyridin-4-yl)-[1,4]diazepan-1-ylmethyl]-oxazolidin-2-one] | ≤ 0.031 | – |
| COc1ccc2nccc(N3CCCN(C[C@@H]4CN(c5ccc(C)c(F)c5)C(=O)O4)CC3)c2n1 [Example 108, (R)-3-(3-Fluoro-4-methyl-phenyl)-5-[4-(6-methoxy-[1,5]naphthyridin-4-yl)-[1,4]diazepan-1-ylmethyl]-oxazolidin-2-one] | 0.25 (≈ 0.537 µM) | – |
| COc1ccc2nccc(N3CCCN(C(=O)[C@@H]4CN(c5ccc6c(c5)OCCO6)C(=O)O4)CC3)c2n1 [Example 109, (S)-3-(2,3-Dihydro-benzo[1,4]dioxin-6-yl)-5-[4-(6-methoxy-[1,5]naphthyridin-4-yl)-[1,4]diazepane-1-carbonyl]-oxazolidin-2-one] | ≤ 0.031 | – |
| COc1ccc2nccc(N3CC[C@H](N(C)C[C@@H]4CN(c5ccc6c(c5)OCCO6)C(=O)O4)C3)c2n1 [Example 112, (R)-3-(2,3-Dihydro-benzo[1,4]dioxin-6-yl)-5-({[(S)-1-(6-methoxy-[1,5]naphthyridin-4-yl)-pyrrolidin-3-yl]-methyl-amino}-methyl)-oxazolidin-2-one] | ≤ 0.031 | – |
| COc1ccc2nccc(N3CCN(C(=O)C[C@@H]4CN(c5ccc6c(c5)NC(=O)CS6)C(=O)O4)CC3)c2n1 [Example 114, 6-((R)-5-{2-[4-(6-Methoxy-[1,5]naphthyridin-4-yl)-piperazin-1-yl]-2-oxo-ethyl}-2-oxo-oxazolidin-3-yl)-4H-benzo[1,4]thiazin-3-one] | ≤ 0.031 | – |
| COc1ccc2nccc(N3CC(NC(=O)C[C@@H]4CN(c5ccc6c(c5)NC(=O)CS6)C(=O)O4)C3)c2n1 [Example 115, N-[1-(6-Methoxy-[1,5]naphthyridin-4-yl)-azetidin-3-yl]-2-[(R)-2-oxo-3-(3-oxo-3,4-dihydro-2H-benzo[1,4]thiazin-6-yl)-oxazolidin-5-yl]-acetamide] | 1 (≈ 1.92 µM) | – |
| COc1ccc2nccc(N3CC(NC(=O)[C@@H]4CN(c5ccc6c(c5)OCCO6)C(=O)O4)C3)c2n1 [Example 116, (S)-3-(2,3-Dihydro-benzo[1,4]dioxin-6-yl)-2-oxo-oxazolidine-5-carboxylic acid[1-(6-methoxy-[1,5]naphthyridin-4-yl)-azetidin-3-yl]-amide] | – | <=0.031 mg/l |
| COc1ccc2nccc(N3CC(CN(C)C[C@H]4CN(c5ccc6c(c5)OCCO6)C(=O)O4)C3)c2n1 [Example 118, (S)-3-(2,3-Dihydro-benzo[1,4]dioxin-6-yl)-5-({[1-(6-methoxy-[1,5]naphthyridin-4-yl)-azetidin-3-ylmethyl]-methyl-amino}-methyl)-oxazolidin-2-one] | 0.25 (≈ 0.509 µM) | – |
| COc1ccc2nccc(N3CCC(NC[C@@H]4CN(c5ccc6c(c5)NC(=O)CS6)C(=O)O4)CC3)c2n1 [Example 119, 6-((R)-5-{[1-(6-Methoxy-[1,5]naphthyridin-4-yl)-piperidin-4-ylamino]-methyl}-2-oxo-oxazolidin-3-yl)-4H-benzo[1,4]thiazin-3-one] | ≤ 0.031 | – |
| COc1ccc2nccc(N3CCC(NC[C@@H]4CN(c5ccc6c(c5)NC(=O)CO6)C(=O)O4)CC3)c2n1 [Example 120, 6-((R)-5-{[1-(6-Methoxy-[1,5]naphthyridin-4-yl)-piperidin-4-ylamino]-methyl}-2-oxo-oxazolidin-3-yl)-4H-benzo[1,4]oxazin-3-one] | ≤ 0.031 | – |
| COc1ccc2nccc(N3CCC(NC[C@@H]4CN(c5ccc(C)c(F)c5)C(=O)O4)CC3)c2n1 [Example 121, (R)-3-(3-Fluoro-4-methyl-phenyl)-5-{[1-(6-methoxy-[1,5]naphthyridin-4-yl)-piperidin-4-ylamino]-methyl}-oxazolidin-2-one] | ≤ 0.031 | – |
| COc1ccc2ncc(F)c(N3CCC(NC[C@@H]4CN(c5ccc6c(c5)NC(=O)CS6)C(=O)O4)CC3)c2n1 [Example 122, 6-((R)-5-{[1-(3-Fluoro-6-methoxy-[1,5]naphthyridin-4-yl)-piperidin-4-ylamino]-methyl}-2-oxo-oxazolidin-3-yl)-4H-benzo[1,4]thiazin-3-one] | ≤ 0.031 | – |
| COc1ccc2ncc(F)c(N3CCC(NC[C@@H]4CN(c5ccc6c(c5)NC(=O)CO6)C(=O)O4)CC3)c2n1 [Example 123, 6-((R)-5-{[1-(3-Fluoro-6-methoxy-[1,5]naphthyridin-4-yl)-piperidin-4-ylamino]-methyl}-2-oxo-oxazolidin-3-yl)-4H-benzo[1,4]oxazin-3-one] | ≤ 0.031 | – |
| COc1ccc2ncc(F)c(N3CCC(N(C)C[C@@H]4CN(c5ccc6c(c5)NC(=O)CS6)C(=O)O4)CC3)c2n1 [Example 124, 6-[(R)-5-({[1-(3-Fluoro-6-methoxy-[1,5]naphthyridin-4-yl)-piperidin-4-yl]-methyl-amino}-methyl)-2-oxo-oxazolidin-3-yl]-4H-benzo[1,4]thiazin-3-one] | ≤ 0.031 | – |
